For the experiment, the system named is P388 leukemia ip, CD2F1 mice, survival T/C. Kind of experiment: NCI In Vivo Anticancer Drug Screen. Data for tumor model P388 Leukemia (intraperitoneal) in CD2F1 (CDF1) mice. As to conditions: endpoint: median survival time, higher = longer survival. The gist of the method: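 Mice carrying the transplanted tumor received test compound or vehicle. Survival was recorded in each group, and the value is the treated-group measurement divided by that of the vehicle-treated control group.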

Where [1] appears, read: dose: 60.0 mg/kg/injection, schedule: Q01DX005 (ip), vehicle: saline with Tween-80.
Setting [2] is: dose: 120.0 mg/kg/injection, schedule: Q01DX005 (ip), vehicle: saline with Tween-80.
The mark [3] stands for this setting: dose: 60.0 mg/kg/injection, schedule: Q01DX005 (ip), vehicle: saline.
Where [4] appears, read: dose: 120.0 mg/kg/injection, schedule: Q01DX005 (ip), vehicle: saline.
Setting [5] is: dose: 240.0 mg/kg/injection, schedule: Q01DX005 (ip), vehicle: saline.
[6] abbreviates: dose: 100.0 mg/kg/injection, schedule: Q01DX001 (ip), vehicle: Klucel (hydroxypropylcellulose) (HPC).
The mark [7] stands for this setting: dose: 200.0 mg/kg/injection, schedule: Q01DX001 (ip), vehicle: Klucel (hydroxypropylcellulose) (HPC).
Where [8] appears, read: dose: 400.0 mg/kg/injection, schedule: Q01DX001 (ip), vehicle: Klucel (hydroxypropylcellulose) (HPC).
[9] abbreviates: dose: 50.0 mg/kg/injection, schedule: Q01DX009 (ip), vehicle: Klucel (hydroxypropylcellulose) (HPC).
[10] abbreviates: dose: 100.0 mg/kg/injection, schedule: Q04DX003 (ip), vehicle: saline with Tween-80.
[11] abbreviates: dose: 400.0 mg/kg/injection, schedule: Q04DX003 (ip), vehicle: saline with Tween-80.

The structures appear in SMILES notation. Several values for one entry are separate records, joined by “and”; a condition that tells them apart may be missing. Equal entries are not always repeated. Toxic doses and inconclusive results are not listed.

Regarding `Cc1ccc2nc3ccccc3c(SCCCCCCSc3c4ccccc4nc4ccc(C)cc34)c2c1`, the T/C was 89 % of control (dose: 60.0 mg/kg/injection, schedule: Q01DX005 (ip), vehicle: Klucel (hydroxypropylcellulose) (HPC)); 107 % of control under setting [1]; 87 % of control (dose: 120.0 mg/kg/injection, schedule: Q01DX005 (ip), vehicle: Klucel (hydroxypropylcellulose) (HPC)); 90 % of control under setting [2]; 87 % of control (dose: 240.0 mg/kg/injection, schedule: Q01DX005 (ip), vehicle: Klucel (hydroxypropylcellulose) (HPC)).

On to `Cc1nonc1CCO`, for which the T/C by setting is: (dose: 50.0 mg/kg/injection, schedule: Q01DX005 (ip), vehicle: saline) 105 % of control; (dose: 100.0 mg/kg/injection, schedule: Q01DX005 (ip), vehicle: saline) 102 % of control; (dose: 200.0 mg/kg/injection, schedule: Q01DX005 (ip), vehicle: saline) 103 % of control.

As to `CNc1ccc2[nH]c3ccccc3c2c1`, the T/C by setting is: under setting [1], 104 % of control; under setting [2], 112 % of control; (dose: 240.0 mg/kg/injection, schedule: Q01DX005 (ip), vehicle: saline with Tween-80) 104 % of control.

With `CC(=O)Cc1cc(-c2cc(CC(C)=O)[nH]n2)n[nH]1`, the T/C under setting [3] is 98 % of control, the T/C under setting [4] is 95 % of control and the T/C under setting [5] was 102 % of control.

On to `C=C1C(=O)CC2C3C1C2(C)CCC(OC(C)=O)C3(C)C` (centres undefined), for which the T/C was 93 % of control (dose: 5.5 mg/kg/injection, schedule: Q01DX005 (ip), vehicle: Klucel (hydroxypropylcellulose) (HPC)); 93 % of control (dose: 11.0 mg/kg/injection, schedule: Q01DX005 (ip), vehicle: Klucel (hydroxypropylcellulose) (HPC)); 100 % of control (dose: 22.0 mg/kg/injection, schedule: Q01DX005 (ip), vehicle: Klucel (hydroxypropylcellulose) (HPC)); 103 % of control (dose: 44.0 mg/kg/injection, schedule: Q01DX005 (ip), vehicle: Klucel (hydroxypropylcellulose) (HPC)).

Consider `O=C(S)CC1(O)CCCCC12OC2c1ccccc1` (centres undefined), for which the T/C runs as follows: under setting [6], 99 % of control; under setting [7], 104 % of control; under setting [8], 103 % of control.

As to `C=C1CCC(Br)C2(C)CCC(C(C)(C)O)CC12` (centres undefined), the T/C by setting is: (dose: 2.0 mg/kg/injection, schedule: Q01DX009 (ip), vehicle: Klucel (hydroxypropylcellulose) (HPC)) 100 % of control; (dose: 4.0 mg/kg/injection, schedule: Q01DX009 (ip), vehicle: Klucel (hydroxypropylcellulose) (HPC)) 100 % of control; (dose: 8.0 mg/kg/injection, schedule: Q01DX009 (ip), vehicle: Klucel (hydroxypropylcellulose) (HPC)) 98 % of control; (dose: 16.0 mg/kg/injection, schedule: Q01DX009 (ip), vehicle: Klucel (hydroxypropylcellulose) (HPC)) 99 % of control.

As to `Cc1cc(C)n(C(N)=NC(=O)c2ccccc2)n1`, the T/C under setting [9] is 104 % of control and 106 % of control; the T/C (dose: 100.0 mg/kg/injection, schedule: Q01DX009 (ip), vehicle: Klucel (hydroxypropylcellulose) (HPC)) was 100 % of control; the T/C (dose: 200.0 mg/kg/injection, schedule: Q01DX009 (ip), vehicle: Klucel (hydroxypropylcellulose) (HPC)) was 109 % of control.

Take `Cc1ccc(S(=O)(=O)N/N=C/c2cccs2)cc1`: the T/C by setting is: (dose: 50.0 mg/kg/injection, schedule: Q01DX009 (ip), vehicle: saline with Tween-80) 95 % of control; (dose: 100.0 mg/kg/injection, schedule: Q01DX009 (ip), vehicle: saline with Tween-80) 87 % of control; (dose: 200.0 mg/kg/injection, schedule: Q01DX009 (ip), vehicle: saline with Tween-80) 93 % of control; (dose: 400.0 mg/kg/injection, schedule: Q01DX009 (ip), vehicle: saline with Tween-80) 102 % of control.

Turning to `O=C(NO)/C(CC(=O)c1ccccc1O)=N\O`, the T/C is 100 % of control under setting [3], 111 % of control under setting [4] and 103 % of control under setting [5].

On to `CC(C)(C)SC#CC(Sc1ccccc1)=C(Sc1ccccc1)Sc1ccccc1`, for which the T/C by setting is: under setting [10], 100 % of control; (dose: 200.0 mg/kg/injection, schedule: Q04DX003 (ip), vehicle: saline with Tween-80) 100 % of control; under setting [11], 100 % of control.

As for `CCOC(CCl)(NC(C)=O)C(=O)OC` (centres undefined), the T/C under setting [6] is 104 % of control, the T/C under setting [7] was 100 % of control and the T/C under setting [8] is 106 % of control.

On to `O=NN(CC(=O)OCc1ccccc1)NC(=O)OCc1ccccc1`, for which the T/C runs as follows: (dose: 12.5 mg/kg/injection, schedule: Q01DX009 (ip), vehicle: other) 96 % of control; (dose: 25.0 mg/kg/injection, schedule: Q01DX009 (ip), vehicle: other) 97 % of control; (dose: 50.0 mg/kg/injection, schedule: Q01DX009 (ip), vehicle: other) 94 % of control; (dose: 100.0 mg/kg/injection, schedule: Q01DX009 (ip), vehicle: other) 96 % of control; (dose: 200.0 mg/kg/injection, schedule: Q01DX009 (ip), vehicle: other) 96 % of control.

As to `CCCCCCCCCCCCC(=O)CCCCC(=O)OC1OCC23OC2C2CC(C)(C)CC2C2(C)CC123` (centres undefined), the T/C (dose: 10.0 mg/kg/injection, schedule: Q01DX005 (ip), vehicle: olive oil, sesame oil, peanut oil) is 105 % of control; the T/C (dose: 20.0 mg/kg/injection, schedule: Q01DX005 (ip), vehicle: olive oil, sesame oil, peanut oil) is 95 % of control; the T/C (dose: 40.0 mg/kg/injection, schedule: Q01DX005 (ip), vehicle: olive oil, sesame oil, peanut oil) was 101 % of control; the T/C (dose: 80.0 mg/kg/injection, schedule: Q01DX005 (ip), vehicle: olive oil, sesame oil, peanut oil) was 94 % of control.

With `Nc1ccn(C2OC(COP(=O)(O)O)C(O)C2O)c(=O)n1` (centres undefined), the T/C by setting is: under setting [10], 150 % of control; (dose: 264.0 mg/kg/injection, schedule: Q04DX003 (ip), vehicle: saline with Tween-80) 181 % of control; under setting [11], 166 % of control and 177 % of control; (dose: 600.0 mg/kg/injection, schedule: Q04DX003 (ip), vehicle: saline with Tween-80) 209 % of control.

As for `COCC12CN(C)C3C4C(OC)C1C3(C(OC)CC2O)C1CC2(O)C(OC)C(O)C4(OC(C)=O)C1C2OC(=O)c1ccccc1` (centres undefined), the T/C was 100 % of control (dose: 0.09 mg/kg/injection, schedule: Q01DX005 (ip), vehicle: Klucel (hydroxypropylcellulose) (HPC)); 91 % of control (dose: 12.0 micrograms/kg/injection, schedule: Q01DX005 (ip), vehicle: Klucel (hydroxypropylcellulose) (HPC)); 98 % of control and 101 % of control (dose: 24.0 micrograms/kg/injection, schedule: Q01DX005 (ip), vehicle: Klucel (hydroxypropylcellulose) (HPC)); 100 % of control and 101 % of control (dose: 48.0 micrograms/kg/injection, schedule: Q01DX005 (ip), vehicle: Klucel (hydroxypropylcellulose) (HPC)).

As for `O=C1c2ccccc2C(=O)N1c1ccccc1`, the T/C is 99 % of control under setting [6], 100 % of control under setting [7] and 100 % of control under setting [8].

For `O=c1c2ccccc2nc(-c2ccc(Cl)cc2)n1O`, the T/C was 92 % of control (dose: 50.0 mg/kg/injection, schedule: Q01DX005 (ip), vehicle: saline with Tween-80) and 88 % of control (dose: 100.0 mg/kg/injection, schedule: Q01DX005 (ip), vehicle: saline with Tween-80).

Consider `COc1cc2c(/C=N/NS(=O)(=O)c3ccc(C)cc3)c(Cl)[nH]c2cc1C`, for which the T/C is 103 % of control (dose: 12.5 mg/kg/injection, schedule: Q01DX009 (ip), vehicle: Klucel (hydroxypropylcellulose) (HPC)); 95 % of control (dose: 25.0 mg/kg/injection, schedule: Q01DX009 (ip), vehicle: Klucel (hydroxypropylcellulose) (HPC)); 92 % of control under setting [9]; 100 % of control under setting [6]; 120 % of control under setting [7]; 100 % of control under setting [8].

With `CCN(CC)C(C)(C)C(=O)/C=C/c1ccc(C)cc1`, the T/C by setting is: under setting [1], 107 % of control; under setting [2], 103 % of control.

For the molecule `C=CCc1ccc(OC)c(O)c1C(=O)OCC`, the T/C reads like this: (dose: 50.0 mg/kg/injection, schedule: Q01DX009 (ip), vehicle: saline) 103 % of control; (dose: 100.0 mg/kg/injection, schedule: Q01DX009 (ip), vehicle: saline) 103 % of control; (dose: 200.0 mg/kg/injection, schedule: Q01DX009 (ip), vehicle: saline) 95 % of control.

The values above are taken from PubChem BioAssay AID330 (DTP/NCI, 2004).
